# Results as given in patent US20070114186A1 (priority 2003, published 2007).
# Test system: pseudomonas & other pathogens
compound,measurement,value
[Zn] [zinc],kills pseudomonas & other pathogens,kills pseudomonas & other pathogens
